Experimental data taken from article PMC11286754 (Nature Communications, 2024).

Assays:
[1] = target: T1, SMTA (transaminase from Shimia marina) (Shimia marina, UniProt A0A0P1EM06); assay type: binding
[2] = target: T1, SMTA (transaminase from Shimia marina); assay type: binding; remark: listed apart in the source

T1 sequence (A0A0P1EM06 1-462 limits assumed): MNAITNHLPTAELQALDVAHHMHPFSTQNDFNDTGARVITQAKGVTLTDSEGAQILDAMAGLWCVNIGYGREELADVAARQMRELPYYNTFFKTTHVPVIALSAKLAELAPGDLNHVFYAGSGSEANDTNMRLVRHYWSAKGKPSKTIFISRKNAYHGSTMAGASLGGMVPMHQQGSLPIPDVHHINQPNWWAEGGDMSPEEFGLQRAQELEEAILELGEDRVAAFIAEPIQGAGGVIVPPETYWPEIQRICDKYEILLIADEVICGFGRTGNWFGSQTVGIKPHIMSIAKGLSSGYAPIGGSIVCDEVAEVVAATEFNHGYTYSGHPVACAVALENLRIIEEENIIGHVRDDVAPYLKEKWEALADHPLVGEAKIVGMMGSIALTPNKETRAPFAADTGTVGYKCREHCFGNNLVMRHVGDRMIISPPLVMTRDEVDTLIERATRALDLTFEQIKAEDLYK

Row | SMILES | X-ray crystal structure, 2.14 A [1] | cofactor release assay [2]
1 | Cc1ncc(COP(=O)(O)O)c(C=O)c1O [PLP, pyridoxal-5′-phosphate] | The apparent electron density indicated a Schiff base between PLP and the catalytic lysine K291 | 
2 | Cc1ncc(COP(=O)(O)O)c(CN)c1O [PMP] |  | binding affinity of both PLP and PMP compared to that of wild-type SMTA
